Laboratory results: patent US7968710B2, “Prokineticin 1 receptor antagonists” (Janssen Pharmaceutica NV, priority 2005, dated 2011)
Where “and” joins values, the source holds several entries; their conditions need not be identical. Equal entries are not always repeated.

B1: PK1: Recombinant human prokineticin-1 expressed in HEK 293 cells, FLAG cleaved; mixture of full-length ligand and four C-terminal residue truncated product (protein, UniProt P58294 20-105, looked up)
Prokineticin-1: AVITGACERDVQCGAGTCCAISLWLRGLRMCTPLGREGEECHPGSHKVPFFRKRKHHTCPCLPNLLCSRFPDGRYRCSMDLKNINF
modifications: mixture with C-terminal 4-residue truncated form
notes: Recombinant human prokineticin-1 expressed in HEK 293 cells, FLAG cleaved; mixture of full-length ligand and four C-terminal residue truncated product

Columns and labels:
PK1 receptor = PK1 receptor (Rattus norvegicus, UniProt Q8R416); assay: Inhibition of PK1-evoked increase in Isc by PK1 receptor antagonists in Ussing-type ion flux chambers; conditions: test compound 1 μM, 15 min incubation, PK1 10 and 100 nM cumulative
Sequence of PK1 receptor (Q8R416 whole entry): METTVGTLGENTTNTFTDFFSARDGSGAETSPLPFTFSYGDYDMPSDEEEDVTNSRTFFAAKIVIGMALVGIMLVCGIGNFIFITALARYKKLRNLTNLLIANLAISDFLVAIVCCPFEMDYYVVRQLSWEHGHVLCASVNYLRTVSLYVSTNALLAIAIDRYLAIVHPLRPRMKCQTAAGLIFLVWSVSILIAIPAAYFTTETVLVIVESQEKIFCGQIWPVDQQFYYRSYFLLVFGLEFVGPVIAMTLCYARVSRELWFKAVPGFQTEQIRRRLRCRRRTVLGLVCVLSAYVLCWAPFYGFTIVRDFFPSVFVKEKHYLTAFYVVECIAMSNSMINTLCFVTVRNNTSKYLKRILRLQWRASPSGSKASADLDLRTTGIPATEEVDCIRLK
Text: Methodology. The basic methodology for Ussing-type ion flux chambers used in these studies was the same as that described in detail above with the following modifications to the experimental protocol.

[1] = biological target: T1, HEK 293 GPR73 (prokineticin 1 receptor) expressing cells (Homo sapiens, UniProt Q8TCW9); assay: PK1 functional assay: screening for PK1 antagonists on the FLIPR (calcium mobilization); assay type: cell-based; conditions: HEK 293 GPR73 cells; for inhibition at 10 µM: HEK293, 10 μM compound, read-out: Ca^2+ Mobilization % Inh @10 μM; for IC50: PK1 ligand at EC50, read-out: Ca^2+ Mobilization IC50; for Ca^2+ Mobilization % Inh @10 μM: 10 μM compound
T1 construct: expressed in transfected cells; host or cells: HEK 293
T1 sequence (Q8TCW9 whole entry): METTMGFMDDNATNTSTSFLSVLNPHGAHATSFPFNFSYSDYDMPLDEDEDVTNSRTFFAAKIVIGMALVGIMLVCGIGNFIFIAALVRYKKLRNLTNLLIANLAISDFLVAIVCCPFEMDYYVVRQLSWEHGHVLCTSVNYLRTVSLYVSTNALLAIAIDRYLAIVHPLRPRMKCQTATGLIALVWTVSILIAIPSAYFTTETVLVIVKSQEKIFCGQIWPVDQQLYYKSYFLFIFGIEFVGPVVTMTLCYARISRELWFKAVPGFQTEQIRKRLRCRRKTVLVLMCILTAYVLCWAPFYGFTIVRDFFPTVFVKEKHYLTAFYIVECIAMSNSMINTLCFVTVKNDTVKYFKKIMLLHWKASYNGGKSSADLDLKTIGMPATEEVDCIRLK
Method: Screening Procedure for PK1 Antagonists on the Fluorometric Imaging Plate Reader (FLIPR)
At a time of 24 h prior to running the assay, in cell culture media (DMEM containing high Glucose and L-glutamine, 10% FBS, 1% Pen/Streptomycin, 1% Sodium Pyruvate, 20 mM HEPES, Zeocin 200 mg/L), 100 μL of 1.3*10^6/ml HEK 293 GPR73 (prokineticin 1 receptor) expressing cells were plated in a 96 well poly-d-lysine coated plate (Costar), and incubated at 37 C and 5% CO2. On the day in which the assay was run, the media was removed and 200 μL of 5× Calcium Plus Dye (Molecular Devices) which was previously resuspended with 200 mL of assay buffer [HBSS w/Ca^2+ and Mg^2+ w/o phenol red, 20 mM HEPES, 0.1% BSA, 10 mL probenecid (710 mg probenecid in 5 mL of 1N NaOH, to which was then added 5 mL HBSS containing 20 mM HEPES)] was added to each well of the 96-well plate. The plate was incubated at 37 C and 5% CO2 for 30 min in dark. The plate was removed and allowed to reach RT for 15 min in the dark. The assay was then run on the FLIPR. […] Baseline is described as the amount of relative fluorescence read when buffer alone is added to cells. Baseline was subtracted from all wells. Percent of control was calculated as follows: (Baseline subtracted well value is divided by baseline subtracted max value)*100. Percent inhibition is 100 minus the percent of control value.
IC50 values were calculated using GraphPad Prism.

rat ileal tissues = assay: Effect of PK1 on secretion and gut mucosal ion transport (short-circuit current, Ussing-type flux chamber)
[2] = tested on: ileum mucosal tissues from PK1 receptor knock-out mice; assay: PK1-evoked Isc in ileum mucosal tissues from PK1 receptor knock-out mice; conditions: exogenous PK1 peptide, PK1 receptor knock-out mice ileum mucosa

Molecule	inhibition at 10 µM [1]	IC50 [1]	Ca^2+ Mobilization % Inh @10 μM [1]	other results
COc1ccc(Cn2c(NCCNC(=N)N)nc(=O)n(Cc3ccccc3)c2=O)cc1 [Cpd 2]				inhibition of the PK1 evoked increase in Isc (PK1 receptor): successfully achieved
N=C(N)NCCNc1nc(=O)n(Cc2ccccc2)c(=O)n1Cc1ccc([N+](=O)[O-])cc1 [Cpd 9]	35%	> 10000 nM		
COc1ccc(Cn2c(NCCONC(=N)N)nc(=O)n(Cc3ccccc3)c2=O)cc1 [Cpd 10]			33%	
COc1ccc(Cn2c(NCCNC(=N)N)nc(=O)n(Cc3ccc(F)cc3)c2=O)cc1 [Cpd 17, N-{2-[5-(4-Fluoro-benzyl)-1-(4-methoxy-benzyl)-4,6-dioxo-1,4,5,6-tetrahydro-[1,3,5]triazin-2-ylamino]-ethyl}-guanidine]				inhibition of the PK1 evoked increase in Isc (PK1 receptor): successfully achieved
COc1ccc(Cn2c(N[C@@H]3CCCC[C@H]3NC(=N)N)nc(=O)n(Cc3ccc(Cl)c(Cl)c3)c2=O)cc1 [Cpd 47]	101%	57 nM		
COc1ccc(Cn2c(NCCNC(=N)NC(C)C)nc(=O)n(Cc3ccc(Cl)c(Cl)c3)c2=O)cc1 [Cpd 58, N-{2-[5-(3,4-Dichloro-benzyl)-1-(4-methoxy-benzyl)-4,6-dioxo-1,4,5,6-tetrahydro-[1,3,5]triazin-2-ylamino]-ethyl}-N′-isopropyl-guanidine]	102%	7 nM and 16 nM (2×)		Ca^2+ Mobilization % Inh @10 μM ([1]; 10 µM): 99% and 98%; inhibition of the PK1 evoked increase in Isc (PK1 receptor): successfully achieved
COc1ccc(Cn2c(NCCNC(=N)NCCc3ccccc3)nc(=O)n(Cc3ccc(Cl)c(Cl)c3)c2=O)cc1 [Cpd 65]		485 nM	88%	
COc1ccc(Cn2c(NCCNC(=N)Nc3ccc(C#N)cc3)nc(=O)n(Cc3ccc(F)cc3)c2=O)cc1 [Cpd 90, N-(4-Cyano-phenyl)-N′-{2-[5-(4-fluoro-benzyl)-1-(4-methoxy-benzyl)-4,6-dioxo-1,4,5,6-tetrahydro-[1,3,5]triazin-2-ylamino]-ethyl}-guanidine]	100%	31 nM and 43 nM (2×)		Ca^2+ Mobilization % Inh @10 μM ([1]; 10 µM): 100% and 101%
COc1ccc(Cn2c(NCCN(C(=N)N)c3ccccn3)nc(=O)n(Cc3ccc(F)cc3)c2=O)cc1 [Cpd 104, N-{2-[5-(4-Fluoro-benzyl)-1-(4-methoxy-benzyl)-4,6-dioxo-1,4,5,6-tetrahydro-[1,3,5]triazin-2-ylamino]-ethyl}-N-pyridin-2-yl-guanidine]		11 nM		Ca^2+ Mobilization % Inh @10 μM ([1]; 10 µM): 99% and 102%
COc1ccc(Cn2c(NCCNC(=N)NCCc3ccccn3)nc(=O)n(Cc3ccc(F)cc3)c2=O)cc1 [Cpd 105]		89 nM	100%	
[H]/N=C(\N)NCCNc1nc(=O)n(Cc2ccc(OC(C)(C)C)cc2)c(=O)n1Cc1ccc(OC)cc1 [Cpd 109]	99%	129 nM		
COc1ccc(Cn2c(NCCNC(=N)Nc3ccccc3F)nc(=O)n(Cc3ccc(F)cc3)c2=O)cc1 [Cpd 118, N-{2-[5-(4-Fluoro-benzyl)-1-(4-methoxy-benzyl)-4,6-dioxo-1,4,5,6-tetrahydro-[1,3,5]triazin-2-ylamino]-ethyl}-N′-(2-fluoro-phenyl)-guanidine]	98%	6 nM		Ca^2+ Mobilization % Inh @10 μM ([1]; 10 µM): 102%
COc1ccc(Cn2c(NCCNC(=N)N)nc(=O)n(CC3CCCC3)c2=O)cc1 [Cpd 124]		1560 nM	74%	
COc1ccc(Cn2c(NCCNC(=N)NC(=O)c3ccccc3)nc(=O)n(Cc3ccc(F)cc3)c2=O)cc1 [Cpd 134, N-Benzoyl-N′-{2-[5-(4-fluoro-benzyl)-1-(4-methoxy-benzyl)-4,6-dioxo-1,4,5,6-tetrahydro-[1,3,5]triazin-2-ylamino]-ethyl}-guanidine]	97%	19 nM and 28 nM	97, 97%	
N-{2-[5-Benzyl-1-(4-methoxy-benzyl)-4,6-dioxo-1,4,5,6-tetrahydro-[1,3,5]triazin-2-ylamino]-ethyl}-oxyguanidine [Cpd 27]		1970 nM	55%	
B1				increase in Isc from baseline (rat ileal tissues; 10 nM PK1, […], n=33 tissues from 22 rats): 13.5±2. μA/cm^2; increase in Isc from baseline (rat ileal tissues; 100 nM PK1, […], n=42 tissues from 29 rats): 28.7±2.9 μA/cm^2; concentration at which the maximal PK1-evoked response occurred (rat ileal tissues; […]): 100 nM; effect on tissue conductance (G) (rat ileal tissues; […]): no significant effect; time for Isc to decline back toward baseline (rat ileal tissues; basolateral addition, […]): 10 to 15 min; time to peak Isc after single-dose addition (rat ileal tissues; basolateral addition, […]): 2 to 4 min; pro-secretory effect in the presence of Atropine (rat ileal tissues; blockade of muscarinic receptors): not blocked; pro-secretory effect in the presence of Tetrodotoxin (TTX) (rat ileal tissues; nerve conduction toxin present): not blocked; change in Isc compared to wild-type littermates [2]: failed to elicit a significant change in Isc
